Target: T1, TagT (Bacillus subtilis, UniProt Q7WY78)
T1 sequence (Q7WY78 1-322): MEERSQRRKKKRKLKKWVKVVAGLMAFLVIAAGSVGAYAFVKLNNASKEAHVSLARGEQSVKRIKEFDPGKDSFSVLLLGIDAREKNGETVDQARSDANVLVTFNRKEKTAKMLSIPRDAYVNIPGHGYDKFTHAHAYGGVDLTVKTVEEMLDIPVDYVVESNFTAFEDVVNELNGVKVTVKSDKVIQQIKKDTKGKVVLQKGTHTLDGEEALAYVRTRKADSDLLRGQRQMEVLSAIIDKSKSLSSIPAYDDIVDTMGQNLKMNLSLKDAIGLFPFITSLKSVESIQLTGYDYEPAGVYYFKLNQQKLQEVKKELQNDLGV
Test: transfer of radiolabelled WTA precursor, PAGE autoradiography
Assay type: biochemical
Details: acceptor; co-substrate LIIA^WTA

SMILES	transfer of radiolabelled WTA precursor, PAGE autoradiography
CC(=O)N[C@H]1[C@H](O[C@H]2[C@H](O)[C@@H](NC(C)=O)[C@H](O[C@H]3[C@H](O)[C@@H](NC(C)=O)C(O)O[C@@H]3CO)O[C@@H]2CO)O[C@H](CO)[C@@H](O[C@@H]2O[C@H](CO)[C@@H](O[C@@H]3O[C@H](CO)[C@@H](O)[C@H](O)[C@H]3NC(C)=O)[C@H](O)[C@H]2NC(C)=O)[C@@H]1O (some centres unmarked) [n=3, chitin oligosaccharide containing five GlcNAcs]	LcpB and TagT transferred WTA onto chitin oligosaccharides containing five or more sugars
CC(=O)N[C@H]1[C@H](O[C@H]2[C@H](O)[C@@H](NC(C)=O)C(O[C@H]3[C@H](O)[C@@H](NC(C)=O)C(O[C@H]4[C@H](O)[C@@H](NC(C)=O)C(O[C@H]5[C@H](O)[C@@H](NC(C)=O)C(O[C@H]6[C@H](O)[C@@H](NC(C)=O)C(O)O[C@@H]6CO)O[C@@H]5CO)O[C@@H]4CO)O[C@@H]3CO)O[C@@H]2CO)O[C@H](CO)[C@@H](O)[C@@H]1O (some centres unmarked) [n=4, chitin oligosaccharide containing six GlcNAcs]	LcpB and TagT transferred WTA onto chitin oligosaccharides containing five or more sugars

From PMC5870139 (Journal of the American Chemical Society, 2018)
